In US20150239889A1, “PYRAZOLOPYRIMIDINE COMPOUND” (MITSUBISHI TANABE PHARMA CORPORATION, priority 2012, published 2015):

What was measured:
Hep3B cells = assay: EPO production assay (ELISA of culture supernatant); format: cell-based; conditions: Homo sapiens, 3 μmol/L test compound, 48 hours, relative to control (0.1% DMSO), read-out: EPO production stimulation rate with 3 μmol/L test compound
Procedure: The stimulatory effect of the compound onEPO production was determined as follows using Hep3B cells.
Cells were seeded on 96 well plates at 40000 cells/well, and the plate was incubated overnight in MEM medium containing 10% fetal bovine serum (FBS) at 37° C. under 5% CO2. The next day, the medium was replaced with MEM containing 0.5% FBS, followed by addition of test compound. The test compound was dissolved in dimethyl sulfoxide and added to the cell so that the final concentration of dimethyl sulfoxide was 0.1%. After incubation for additional 48 hours, the culture supernatant was collected, and EPO contained in the supernatant was determined using ELISA kit (EPO ELISA Kit 11-693-417-001, Roche Co.). The results were expressed as stimulation rate of EPO production (fold), which was calculated as the relative value of the EPO production with 3 μmol/L of the test compound compared to the EPO production without stimulation (control).
Stimulation rate of EPO production (fold)=(EPO production with addition of test compound)/(EPO production of control)

human HIF-PHD2 = biological target: T1, human HIF-PHD2 (Homo sapiens, UniProt Q9GZT9); assay: HIF-PHD inhibition assay (fluorescence polarization), human HIF-PHD2; format: biochemical; conditions: 2-oxoglutaric acid 3.33 μmol/L
T1 construct: purchased CrystalGenomics Ltd
Method in brief: (§1)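 Measured signal: mP difference, after versus before enzyme addition, representing enzyme activity. Detection relied on a FAM-tagged, ACA-spaced fluorescent probe.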

human HIF-PHD3 = biological target: T2, human HIF-PHD3 (Homo sapiens, UniProt Q9H6Z9); assay: HIF-PHD inhibition assay (fluorescence polarization), human HIF-PHD3; format: biochemical; conditions: 2-oxoglutaric acid 166 μmol/L
T2 construct: purchased CrystalGenomics Ltd
Method in brief: as §1

T1 sequence (Q9GZT9 2-426 limits assumed): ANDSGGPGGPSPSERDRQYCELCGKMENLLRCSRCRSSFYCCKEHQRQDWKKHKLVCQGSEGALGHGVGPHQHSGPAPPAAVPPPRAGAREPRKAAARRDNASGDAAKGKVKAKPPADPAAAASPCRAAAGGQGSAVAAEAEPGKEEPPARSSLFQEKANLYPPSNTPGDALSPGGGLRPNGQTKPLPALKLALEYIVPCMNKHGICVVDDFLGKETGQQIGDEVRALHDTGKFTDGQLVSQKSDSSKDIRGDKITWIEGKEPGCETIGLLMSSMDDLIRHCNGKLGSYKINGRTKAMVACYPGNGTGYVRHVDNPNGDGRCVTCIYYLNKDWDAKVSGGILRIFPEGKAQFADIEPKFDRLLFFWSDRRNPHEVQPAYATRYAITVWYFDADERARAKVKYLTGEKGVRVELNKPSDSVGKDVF
T2 sequence (Q9H6Z9 whole entry): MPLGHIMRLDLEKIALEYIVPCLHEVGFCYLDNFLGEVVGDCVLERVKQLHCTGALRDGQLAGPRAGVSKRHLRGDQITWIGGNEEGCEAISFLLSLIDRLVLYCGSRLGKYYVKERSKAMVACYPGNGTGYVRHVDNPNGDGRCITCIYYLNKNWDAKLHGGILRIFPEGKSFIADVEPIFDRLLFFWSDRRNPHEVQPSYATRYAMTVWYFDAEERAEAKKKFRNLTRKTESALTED

Row | IC50 (human HIF-PHD2) [nM] | IC50 (human HIF-PHD3) [nM] | Compound | fold induction at 3 µM (Hep3B cells)
1 | 11 | 210 | O=C(O)c1cnn(-c2nc(O)c3c(n2)c(F)nn3C[C@H]2CC[C@H](C(F)(F)F)CC2)c1 [Example 465] | 2.5
2 | 46 | 500 | O=C(O)c1cnn(-c2nc(O)c3c(cnn3CC34CC5CC(CC(C5)C3)C4)n2)c1 [Example 381] | 6.3
3 | 3 | 13 | O=C(O)c1cnn(-c2nc(O)c3nn(Cc4ccc(Cl)c(Cl)c4)cc3n2)c1 [Example 235] | 1.9
4 | 17 | 270 | O=C(O)c1cnn(-c2nc(O)c3nn(CC4CCN(c5ccc(C(F)(F)F)cn5)CC4)cc3n2)c1 [Example 247] | 1.3
5 | 10 | 250 | O=C(O)c1cnn(-c2nc(O)c3c(cnn3C[C@H]3CC[C@H](Oc4cccc(F)c4)CC3)n2)c1 [Example 148] | 11
6 | 25 | 360 | CC(C)(C)[C@H]1CC[C@H](Cn2ncc3nc(-n4cc(C(=O)O)cn4)nc(O)c32)CC1 [Example 142] | 15
7 | 11 | 91 | CC(C)[C@H]1CC[C@H](Cn2nc(Cl)c3nc(-n4cc(C(=O)O)cn4)nc(O)c32)CC1 [Example 224] | 8.4
8 | 26 | 310 | CC(C)(Cn1ncc2nc(-n3cc(C(=O)O)cn3)nc(O)c21)Oc1cccc2ccccc12 [Example 212] | 2.7
9 | 19 | 170 | O=C(O)c1cnn(-c2nc(O)c3c(cnn3CCCOc3ccc(C(F)(F)F)cc3Cl)n2)c1 [Example 176] | 22
10 | 24 | 260 | C[C@H](c1ccc(-c2ccccc2)cc1)n1ncc2nc(-n3cc(C(=O)O)cn3)nc(O)c21 [Example 109] | 20
11 | 67 | 400 | CC(C)(CCn1ncc2nc(-n3cc(C(=O)O)cn3)nc(O)c21)c1ccc2ccccc2c1 [Example 132] | 2.6
12 | 63 | 340 | O=C(O)c1cnn(-c2nc(O)c3c(cnn3CCCOc3cc(C(F)(F)F)cc(C(F)(F)F)c3)n2)c1 [Example 183] | 7.5

The remaining lines, values behind:

Row | Compound | IC50 (human HIF-PHD2) [nM] | IC50 (human HIF-PHD3) [nM] | fold induction at 3 µM (Hep3B cells)
13 | N#Cc1ccccc1-c1ccc(Cn2ncc3nc(-n4cc(C(=O)O)cn4)nc(O)c32)c(F)c1 [Example 87] | 50 | 260 | 5.3
14 | COc1ccccc1-c1ccc(Cn2ncc3nc(-n4cc(C(=O)O)cn4)nc(O)c32)cc1F [Example 95] | 24 | 86 | 4.2
15 | O=C(O)c1cnn(-c2nc(O)c3c(cnn3Cc3cccc(-c4cccc(C(F)(F)F)c4)c3)n2)c1 [Example 45] | 50 | 170 | 8.9
16 | COc1ccccc1-c1ccc(Cn2ncc3nc(-n4cc(C(=O)O)cn4)nc(O)c32)cc1OC [Example 99] | 37 | 200 | 3.1
17 | O=C(O)c1cnn(-c2nc(O)c3c(cnn3Cc3cccc(-c4ccccc4)c3F)n2)c1 [Example 52] | 22 | 250 | 3.3
18 | O=C(O)c1cnn(-c2nc(O)c3c(cnn3Cc3c(F)cc(-c4ccccc4)cc3F)n2)c1 [Example 79] | 16 | 200 | 14
19 | O=C(O)c1cnn(-c2nc(O)c3c(cnn3Cc3ccc(-c4ccccc4)cc3F)n2)c1 [Example 78] | 6.1 | 68 | 30
20 | O=C(O)c1cnn(-c2nc(O)c3c(cnn3Cc3ccc(C4CCCCC4)cc3)n2)c1 [Example 37] | 26 | 120 | 8.3
21 | O=C(O)c1cnn(-c2nc(O)c3c(cnn3Cc3ccc(-c4cccc(C(F)(F)F)c4)cc3)n2)c1 [Example 65] | 11 | 180 | 20
